Data on two compounds can be found in US7495028B2, “R-bambuterol, its preparation and therapeutic uses” (priority 2002, dated 2009).

For experiment [1], the system named is isolated guinea pig lung strip. Briefly: Bronchodilating effect on isolated guinea pig lung strip pre-contracted by histamine. The experiment is classed as cell-based. Here is the method:
Test method: Guinea pigs (Dunlin-Hartley, ca. 400 g) were used. After anesthesia, the chest was opened and sections of lung tissue about 3 mm in width, were dissected quickly from a lower lobe with the longitudinal axis of the strip cut parallel to the bronchus. The strips were further divided into two thin strips with approximate dimension of 20×3×3 mm. With threads attached to each end, strips were mounted in organ baths containing aerated Krebs solution at 37° C. A load of between 0.5-1.0 g force was applied by gentle stretching, and the tissue was allowed to equilibrate for 60 min with the solution changed at 20 min intervals. The lung strips were pre-contracted by 10^−5 M histamine, then an equal volume of solution containing R-bambuterol or racemic bambuterol was added cumulatively into the organ bath. The contractions of the lung strips were measured isometrically with force-displacement transducers and recorded.
Based on the pharmacokinetic studies of racemic bambuterol hydrochloride, about 50% of absorbed bambuterol is hydrolyzed to terbutaline, the active-parent form, in plasma. There is little cholinesterase in the lung strip preparation, so neither the test compound nor racemic bambuterol has significant effects. In order to test the compound of invention in vitro on isolated guinea-pig lung tissue, R-bambuterol and racemic bambuterol were administrated orally to guinea pigs at a dose of 8 mg/kg. Four hours later, blood was collected from the animals, and the serum containing the active parent form of the test compounds were prepared. The concentration of the active parent form, i.e. terbutaline, in serum measured using BPLC, was 64-70 ng/ml in the animal treated with R-bambuterol and 62-69 ng/ml in the animal treated with racemic bambuterol. The serum containing the active form of test compound was then added into the organ in a certain volume, so that the final concentration of the active forms of test compounds was 0.25 ng/ml in the organ bath. Concentration-response relationships were obtained using a cumulative dose schedule by adding the same volume of the serum into the organ bath. The test using the serum containing the active form of racemic bambuterol was done in parallel with the test compound in the same manner as described above.

The subject of the next experiment is β-2 receptor. The following applies: Hartley and Middlemis 1971; cited from earlier work.

For `CC(C)(C)NC[C@H](O)c1cc(O)cc(O)c1` [Active form of R-bambuterol, R-terbutaline], the “Percent of Relaxation” value is 12.4 ± 1.3% in experiment [1] (0.25 ng/ml active form in organ bath, 10^−5 M histamine pre-contraction); 19.5 ± 2.2% in experiment [1] (0.50 ng/ml active form); 43.7 ± 1.8% in experiment [1] (0.75 ng/ml active form); 60.1 ± 5.7% in experiment [1] (1.00 ng/ml active form); 75.6 ± 8.4% in experiment [1] (1.25 ng/ml active form).
Turning to `CC(C)(C)NC[C@H](O)c1ccc(O)c(CO)c1` [R-enantiomer of albuterol, albuterol], in the experiment on β-2 receptor, the “Potency as β-2 receptor agonist relative to the S-enantiomer” value is on record as “approximately 80 times”.
